Assays:
RPE1 cells [1] = experiment: Titration of CYSLTR2 antagonists against Doxorubicin, AlamarBlue cell viability assay; type: cell-based, human; settings: 4 days
Procedure: FIG. 6: Identifying Doxorubicin resistance with an optimized 3Cs-gRNA library. A) Experimental scheme illustrating the usage of hTERT-RPE1 cells, transduced with lentiviral particles (MOI=1) and selected with 1 μM Doxorubicin for three weeks. B) NGS- and bioinformatically-based identification of Doxorubicin-resistance inducing gRNAs and their location within annotated human genomic DNA. C) The CYSLTR2 gene is a reproducible protein-coding hit for which two chemical inhibitors are commercially available. Both inhibitors are titrated versus increasing concentrations of Doxorubicin and induce resistance to Doxorubicin.
Of all remaining gRNAs, 45.6% are located in coding regions, 22.2% are in introns and 10.5% are in non-coding (RNA coding) regions (FIG. 6b). However, 21.7% of gRNAs are located in genomic regions for which no biotype could be assigned, indicating a gap of knowledge for those regions (FIG. 6b). To validate some of the findings in a CRISPR/Cas independent manner, the protein-coding hit gene CYSLTR2 was chosen for which two chemical antagonists are commercially available. The inventors titrated increasing concentrations of Doxorubicin against increasing concentrations of the two compounds (BayCysLTR2 and Bay u9773) and incubated drug exposed RPE1 cells for 4 days after which they were subject to the cell viability assays AlamarBlue.

RPE1 cells [2] = experiment: Doxorubicin effect on RPE1 cell viability (unperturbed conditions); type: cell-based, human; settings: within 4 days

SMILES | strength of the reversion effect compared with the other CYSLTR2 antagonist (RPE1 cells [1]; FIG. 6c) | reversion of the cytotoxic effect of Doxorubicin (RPE1 cells [1]; increasing concentrations titrated against increasing Doxorubicin) | reduction of RPE1 cell viability (RPE1 cells [2])
CCCCC/C=C\C\C=C/C=C/C=C/[C@@H](Sc1ccc(C(=O)O)cc1)[C@@H](O)CCCC(=O)O [Bay u9773] | reproducibly stronger effect | able to revert the cytotoxic effect of Doxorubicin in a dose-dependent manner | 
COc1cccc2c1C(=O)c1c(O)c3c(c(O)c1C2=O)C[C@@](O)(C(=O)CO)C[C@@H]3O[C@H]1C[C@H](N)[C@H](O)[C@H](C)O1 [Doxorubicin] |  |  | robust and dose-dependent reduction of RPE1 cell viability

Reference: patent US12091656B2, “Method for generating higher order genome editing libraries” (Johann Wolfgang Goethe-Universität Frankfurt am Main, priority 2016, dated 2024)
